In patent US20080305995A1, “Royal Jelly Peptide and Composition Containing the Same” (priority 2003, published 2008):

Legend:
honeybee larvae = assay: Effect of inducing differentiation to queen bees (honeybee artificial breeding, peptide in artificial diet); format: in vivo, Western honeybees (Apis mellifela)
Method: Functional analysis was carried out by using the royal jelly peptide obtained in Example 6. Specifically, honeybees were bred according to the existing honeybee artificial breeding method. In this process, 500 ng of the royal jelly peptide was added in the artificial diet to be administered per honeybee. On the other hand, for the control group, bovine serum albumin was used in place of the royal jelly peptide.
The growth rate from larvae to imagines is about 20%. […] From this, it can be considered that the royal jelly peptide of the invention of this invention is […] having an auxiliary function in inducing differentiation to queen bees.

[1] = tested on: lymphocyte cell derived from a mouse spleen; assay: Immunity activation test (alamar blue, lymphocyte growth); format: cell-based, ICR type mice; conditions: 3 μg/ml and 6 μg/ml, every 12 hours for 4 days, compared with no addition (FIG. 9)
Method: For the laboratory animal, ICR type mice (female, Nippon SLC) were used.
Whereas, for the medium, an RPMI medium (manufactured by Nissui Pharmaceutical Co., Ltd.) containing 10% fetal calf serum (FCS), 2 mM L-glutamine, 50 μM 2-mercaptoethanol, 100 Units/ml penicillin, and 100 μg/ml streptomycin was used. Thus, culturing was carried out in 5% CO2 at 37° C. under wet conditions.
Namely, the mice anesthetized with diethyl ether were subjected to cervical vertebrae dislocation, and fixed. Then, by using scissors for dissection and tweezers, the spleen was excised, and transferred to a dish containing therein 10 ml of PBS (−) (137 mM NaCl, 2.7 mM KCl, 2 mM Na2HPO4-12HyO, 1.5 mM KH2PO4). In the dish, the spleen was homogenized. […]
The lymph cell suspension controlled was dyed with a 0.4% trypan blue solution, and the number of cells was counted by means of a Burker-Turk hemocytomer. […]
The lymph cell suspension controlled in the item <bb was added in an amount of 100 μl per well into a 96-well microplate (manufactured by IWAKI Co.). […] Thus, the changes in absorbance were measured by means of a microplate reader (manufactured by Nalge Nunc International Co.) set at a wavelength of 590 to 620 nm every 12 hours for 4 days to analyze the effects of each fraction and isolated compound on the lymphocytes. […]

[2] = 500 ng per honeybee in artificial diet, 24 first instar larvae
[3] = 500 ng per honeybee in artificial diet, number among imagines

apisimin (KTSISVKGESNVDVVSQINSLVSSIVSGANVSAVLLAQTLVNILQILIDANVFA) [Recombinant peptide, Royal jelly peptide of 54 amino acid residues (apisimin), expressed in E. coli as thioredoxin fusion, cleaved with Factor Xa]
Number of imagines (honeybee larvae; [2]): 4
Number of last instar larvae (honeybee larvae; [2]): 14
Number of pupae (honeybee larvae; [2]): 8
Caste: Intermediates (honeybee larvae; [3]): 1
Caste: Queen (honeybee larvae; [3]): 0
Caste: Working bee (honeybee larvae; [3]): 3
growth rate from larvae to imagines (honeybee larvae; Table 1 experiment): about 20%
emergence of intermediates out of the larvae (honeybee larvae; larvae to which the royal jelly peptide had been administered): intermediates can be allowed to emerge
effect on the growth of lymphocyte cells (alamar blue absorbance) [1]: remarkably exhibited
